Activation data for one compound are collected here from patent US6025365A, “Chelerythrine and radiation combined tumor therapy” (Arch Development Corp., priority 1997, dated 2000).

The subject of this assay is WEHI-231 cells. The assay is described as follows: Ceramide production by DAG kinase assay. The following applies: Mus musculus, WEHI231, 0.5 h; 10 μM chelerythrine, approximately 30 minutes; read-out: ceramide generation increase. In kind it is cell-based, murine. The protocol: FIG. 7A. Inhibition of PKC causes an increase in ceramide production through the activation of a neutral sphingomyelinase and decreases in sphingomyelin levels. Ceramide production was quantitated using the DAG kinase assay for WEHI-231 JM cells and total lipid extraction was used to assay sphingomyelin mass. Following addition of 10 μM chelerythrine, cells were lysed at the appropriate time points as described herein. Each data point represents the average percentage change in ceramide or sphingomyelin generation from baseline derived from at least 8 independent studies for all time points with the exception of those marked with * (n=4). Standard deviations depicted by error bars.
FIG. 7B. […] Ceramide production and sphingomyelin mass was quantitated identical to that for chelerythrine. Cells were lysed 2 hours following the addition of 250 nM calphostin C. […]
Quantitation of ceramide by diacylglycerol kinase was similar to that described by Dressler and Kolesnick (1990). […] Data was calculated as pmoles of ceramide/10^6 cells by scintillation counting. […]
In order to test whether PKC inhibition alters ceramide production, the DAG kinase assay was used to quantify intracellular ceramide following chelerythrine and calphostin C treatment (Dressler and Kolesnick, 1990; Preiss et al., 1986). […]

Regarding `COc1ccc2c(c[n+](C)c3c4cc5c(cc4ccc23)OCO5)c1OC` [chelerythrine, 1,2-dimethoxy-12-methyl[1,3]benzodioxolo[5,6-c]phenanthridinium], the activation at 10 µM was 100%.
